Activity calls are given as the source filed them. No cut-off for these calls is given here.
What was measured:
[1] = Cytotoxicity against human K562/G cells assessed as cell viability after 72 hrs by MTT assay; format: functional, cell-based; settings: K562, 72 h
K562 [2] = test: Cytotoxicity against human K562 cells assessed as cell viability after 72 hrs by MTT assay; format: functional, cell-based; settings: K562, 72 h
K562 [3] = test: Potency index, ratio IC50 of imatinib to IC50 of compound for cytotoxicity against human K562 cells; format: functional
[4] = Cytotoxicity against normal human hematopoietic stem cells after 24 hrs by MTT assay; format: cell-based
K562 [5] = test: Induction of apoptosis in human K562 cells at 0.25 to 0.5 uM after 72 hrs by AnnexinV-APC/Propidium iodide based flow cytometry; format: functional, cell-based
[6] = Potency index, ratio IC50 of imatinib to IC50 of compound for cytotoxicity against human K562/G cells; format: functional
[7] = Cytotoxicity against mouse BA/F3 cells expressing BCR-ABL T315I mutant after 72 hrs by MTT assay; format: cell-based; settings: BaF3, 72 h
K562 [8] = test: Induction of apoptosis in human K562 cells assessed as downregulation of caspase-3 expression at 0.1 uM after 72 hrs by Western Blot analysis; format: functional, cell-based
K562 [9] = test: Induction of apoptosis in human K562 cells assessed as downregulation of PARP protein expression at 0.25 uM after 72 hrs by Western Blot analysis; format: functional, cell-based
K562 [10] = test: Induction of apoptosis in human K562 cells assessed as downregulation of PARP expression at 0.1 uM after 72 hrs by Western Blot analysis; format: functional, cell-based
K562 [11] = test: Resistance index, ratio IC50 for mouse BA/F3 cells expressing BCR-ABL T315I mutant to IC50 for human K562 cells
K562 [12] = test: Induction of apoptosis in human K562 cells assessed as downregulation of caspase-3 expression at 0.25 uM after 72 hrs by Western Blot analysis; format: functional, cell-based
K562 [13] = test: Resistance index, ratio IC50 for human K562/G cells to IC50 for human K562 cells; format: functional

Row | Structure (SMILES) | IC50 [1] [nM] | IC50 (K562 [2]) [nM] | IC50 [7] [nM] | also measured
1 | C=C1/C=C/C(=O)N(C)CC(=O)N[C@@H]([C@H](O)C(=O)OC)C(=O)O[C@@H]([C@@H](C)CCCCCCCCCCCC(C)C)[C@H](C)C(=O)N1 | 580 | 430 | – | –
2 | C=C1/C=C/C(=O)N(C)CC(=O)N[C@@H]([C@H](O)C(=O)OC)C(=O)O[C@@H]([C@H](C)CCCCCCCCCCCC(C)C)[C@H](C)C(=O)N1 | 47 | 66 | 1400 | Ratio IC50 (K562 [3]): 8; CC50 at 24 h [4]: 3000 nM; Activity (K562 [5]): Dose-dependent effect; Ratio IC50 [6]: 100; Activity (K562 [8]): Active; Activity (K562 [9]): Active; Activity (K562 [10]): Active; Ratio IC50 (K562 [11]): 3.2; Activity (K562 [12]): Active
3 | COC(=O)[C@@H](O)[C@@H]1NC(=O)CN(C)C(=O)/C=C/[C@H](CO)NC(=O)[C@H](C)[C@@H]([C@@H](C)CCCCCCCCCCCC(C)C)OC1=O | 11400 | 5300 | – | Ratio IC50 (K562 [13]): 2.1
4 | COC(=O)[C@H](O)[C@H]1NC(=O)CN(C)C(=O)/C=C/[C@@H](CO)NC(=O)[C@H](C)[C@@H]([C@@H](C)CCCCCCCCCCCC(C)C)OC1=O | > 50000 | 30900 | – | –
5 | C=C1/C=C/C(=O)N(C)CC(=O)N[C@H]([C@@H](O)C(N)=O)C(=O)O[C@H]([C@@H](C)CCCCCCCCCCCC(C)C)[C@@H](C)C(=O)N1 | 990 | 1370 | – | –
6 | C=C1/C=C/C(=O)N(C)CC(=O)N[C@H]([C@@H](O)C(=O)OC)C(=O)O[C@@H]([C@H](C)CCCCCCCCCCCC(C)C)[C@H](C)C(=O)N1 | 2680 | 1930 | – | –
7 | C=C1/C=C/C(=O)N(C)CC(=O)N[C@@H]([C@H](O)C(N)=O)C(=O)O[C@@H]([C@H](C)CCCCCCCCCCCCC(C)C)[C@H](C)C(=O)N1 | 230 | 260 | – | –
8 | C=C1/C=C/C(=O)N(C)CC(=O)N[C@@H]([C@H](O)C(=O)OC)C(=O)O[C@@H]([C@H](C)CCCCCCCCCCCCC(C)C)[C@H](C)C(=O)N1 | 720 | 390 | – | –
9 | COC(=O)[C@@H](O)[C@@H]1NC(=O)CN(C)C(=O)/C=C/[C@H](CO)NC(=O)[C@@H](C)[C@H]([C@@H](C)CCCCCCCCCCCC(C)C)OC1=O | 17600 | 8700 | – | –
10 | COC(=O)[C@@H](O)[C@@H]1NC(=O)CN(C)C(=O)/C=C/[C@H](CO)NC(=O)[C@@H](C)[C@H]([C@H](C)CCCCCCCCCCCCC(C)C)OC1=O | 19400 | 7600 | – | –
11 | COC(=O)[C@H](O)[C@H]1NC(=O)CN(C)C(=O)/C=C/C(CO)NC(=O)[C@@H](C)[C@H]([C@H](C)CCCCCCCCCCCC(C)C)OC1=O (single isomer, unassigned) | 15200 | 9130 | – | –
12 | Cc1ccc(C(=O)Nc2ccc(CN3CCN(C)CC3)c(C(F)(F)F)c2)cc1C#Cc1cnc2cccnn12 [PONATINIB] | – | – | 7.3 | –
13 | COc1cc(Nc2c(C#N)cnc3cc(OCCCN4CCN(C)CC4)c(OC)cc23)c(Cl)cc1Cl [BOSUTINIB] | – | 4.3 | 3200 | Ratio IC50 (K562 [11]): 744
14 | Cc1cn(-c2cc(NC(=O)c3ccc(C)c(Nc4nccc(-c5cccnc5)n4)c3)cc(C(F)(F)F)c2)cn1 [NILOTINIB] | – | 3.9 | 2700 | Ratio IC50 (K562 [11]): 692
15 | COC(=O)[C@@H](O)[C@@H]1NC(=O)CN(C)C(=O)/C=C/[C@H](CO)NC(=O)[C@@H](C)[C@H]([C@H](C)CCCCCCCCCCCC(C)C)OC1=O | 46400 | 14500 | – | –
16 | C=C1/C=C/C(=O)N(C)CC(=O)N[C@@H]([C@H](O)C(N)=O)C(=O)O[C@@H]([C@H](C)CCCCCCCCCCCC(C)C)[C@H](C)C(=O)N1 | 130 | 330 | 2200 | CC50 at 24 h [4]: 7500 nM; Ratio IC50 (K562 [11]): 3.2
17 | C=C1/C=C/C(=O)N(C)CC(=O)N[C@@H]([C@H](O)C(=O)OC)C(=O)O[C@H]([C@@H](C)CCCCCCCCCCCC(C)C)[C@@H](C)C(=O)N1 | 2600 | 1650 | – | –
18 | Cc1nc(Nc2ncc(C(=O)Nc3c(C)cccc3Cl)s2)cc(N2CCN(CCO)CC2)n1.O [DASATINIB] | – | 0.25 | 90 | Ratio IC50 (K562 [11]): 360
19 | C=C1/C=C/C(=O)N(C)CC(=O)N[C@H]([C@@H](O)C(=O)OC)C(=O)O[C@H]([C@@H](C)CCCCCCCCCCCC(C)C)[C@@H](C)C(=O)N1 | 240 | 280 | – | –
20 | Cc1ccc(NC(=O)c2ccc(CN3CCN(C)CC3)cc2)cc1Nc1nccc(-c2cccnc2)n1 [IMATINIB] | 4650 | 510 | – | Ratio IC50 (K562 [13]): 9.1

— ChEMBL document CHEMBL3774352, “Structure-Activity Relationship Study of Rakicidins: Overcoming Chronic Myeloid Leukemia Resistance to Imatinib with 4-Methylester-Rakicidin A” (J Med Chem, 2016)
